Test results taken from article PMC8972196, “A Set of Experimentally Validated Decoys for the Human CC Chemokine Receptor 7 (CCR7) Obtained by Virtual Screening” (Frontiers in Pharmacology, 2022).
Like-named read-outs stand apart in the source and are kept apart here.

Molecular target: T1, human CCR7 (Homo sapiens, UniProt P32248)
T1 construct: expressed in transfected cells
T1 sequence (P32248 25-378): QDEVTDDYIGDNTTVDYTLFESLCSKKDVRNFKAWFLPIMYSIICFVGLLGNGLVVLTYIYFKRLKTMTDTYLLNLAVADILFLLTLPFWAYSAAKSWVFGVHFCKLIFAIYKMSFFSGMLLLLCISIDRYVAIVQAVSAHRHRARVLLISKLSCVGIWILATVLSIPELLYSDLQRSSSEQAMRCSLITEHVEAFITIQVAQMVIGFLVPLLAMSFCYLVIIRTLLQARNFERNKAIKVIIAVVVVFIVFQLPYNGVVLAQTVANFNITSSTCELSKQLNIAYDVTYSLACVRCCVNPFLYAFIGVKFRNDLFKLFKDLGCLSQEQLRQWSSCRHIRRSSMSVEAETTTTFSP
Test: CCL19-induced calcium mobilization assay, U87.CD4 cells expressing CCR7
Format: cell-based
Method: U87.CD4 cells that stably express either human CCR7, CXCR2, CCR5 or CXCR4 were seeded (20,000 cells/well) in gelatin-coated black-walled polystyrene 96-well plates with clear bottom and incubated overnight at 37°C and 5% CO2. […] Culture medium was removed, and cells were incubated for 45 min at room temperature in the dark. […] Exactly the same protocol was used to record calcium responses in Chinese hamster ovary (CHO)-K1 cells, upon stimulation with adenosine triphosphate (ATP, purchased from Sigma).

[1] = CCL19-induced calcium signaling, read-out: IC50 [μM] block CCL19 induced calcium signaling
[2] = classification of tested compounds as decoy or active
[3] = CCL19 induced calcium signaling, read-out: IC50 [μM] block CCL19 induced calcium signaling
[4] = classification as decoy or active on CCR7

CN(C)S(=O)(=O)c1ccc(-c2nnc(C(=O)NCc3ccccc3)o2)cc1 [C089, CN(C)S(=O)(=O)c1ccc(-c2nnc(C(=O)NCc3ccccc3)o2)cc1]
IC50 [1]: > 50 µM
Decoy – 0 Active – 1 [2]: 0

CCOC(=O)NC(=S)Nc1ncccn1 [C045, S=C(NC(OCC)=O)NC1=NC=CC=N1]
IC50 [1]: > 30 µM
Decoy – 0 Active – 1 [2]: 0

O=C(CCC1(C(=O)O)CCC(=O)NC1)NCc1ccccc1 (centres unmarked) [C216, O=C(CCC1(C(=O)[O-])CCC(=O)NC1)NCc1ccccc1]
IC50 [3]: > 50 µM
Decoy – 0 Active – 1 [4]: 0

CN(C)CCNc1c(Nc2cc(C(F)(F)F)cc(C(F)(F)F)c2)c(=O)c1=O [C024, O=C1C(NCCN(C)C)=C(NC2=CC(C(F)(F)F)=CC(C(F)(F)F)=C2)C1=O]
IC50 [1]: > 50 µM
Decoy – 0 Active – 1 [2]: 0

Cc1ccc(S(=O)(=O)N(CCC(=O)NC(C)CO)c2ccccc2)cc1 (centres unmarked) [C250, Cc1ccc(cc1)S(=O)(=O)N(CCC(=O)NC(C)CO)c2ccccc2]
IC50 [3]: > 50 µM
Decoy – 0 Active – 1 [4]: 0

Cc1cccc(CN2CCC[C@H](Nc3ccc(C)c(C)c3)C2)n1 [C083, Cc1cccc(C[N@H+]2CCC[C@H](Nc3ccc(C)c(C)c3)C2)n1]
IC50 [1]: > 50 µM
Decoy – 0 Active – 1 [2]: 0

COC(=O)c1ccccc1Nc1c(NCc2ccc(OC)cc2)c(=O)c1=O [C011, COC(=O)c1ccccc1Nc1c(NCc2ccc(OC)cc2)c(=O)c1=O]
IC50 [1]: > 50 µM
Decoy – 0 Active – 1 [2]: 0

CN1CC[C@H](NC(=O)CN[C@@H](c2ccccc2)C(F)(F)F)C1=O [C107, CN1CC[C@H](NC(=O)CN[C@@H](c2ccccc2)C(F)(F)F)C1=O]
IC50 [1]: > 50 µM
Decoy – 0 Active – 1 [2]: 0

COc1ccc(S(=O)(=O)N(CC(=O)N2CCN(C)CC2)Cc2ccccc2)cc1C [C242, Cc1cc(ccc1OC)S(=O)(=O)N(Cc2ccccc2)CC(=O)N3CC[NH+](CC3)C]
IC50 [3]: > 50 µM
Decoy – 0 Active – 1 [4]: 0

COc1ccc(O)c(/C=C(\C#N)C(=O)Nc2cccc(Cl)c2Cl)c1 [C164, COc1ccc(O)c(/C=C(\C#N)C(=O)Nc2cccc(Cl)c2Cl)c1]
IC50 [3]: > 50 µM
Decoy – 0 Active – 1 [4]: 0

FC(F)(F)c1cccc(NC(=S)NCc2ccccc2C(F)(F)F)c1 [C036, FC(F)(F)c1cccc(NC(=S)NCc2ccccc2C(F)(F)F)c1]
IC50 [1]: > 30 µM
Decoy – 0 Active – 1 [2]: 0

CCOC(=O)NC(=S)Nc1ccccn1 [C047, S=C(NC1=NC=CC=C1)NC(OCC)=O]
IC50 [1]: > 30 µM
Decoy – 0 Active – 1 [2]: 0

O=c1c(NCC2COc3ccccc3O2)c(N2CCSCC2)c1=O (centres unmarked) [C003, O=c1c(NCC2COc3ccccc3O2)c(N2CCSCC2)c1=O]
IC50 [1]: > 50 µM
Decoy – 0 Active – 1 [2]: 0

Cc1cccc(C)c1NC(=O)c1cc(S(N)(=O)=O)c(Cl)cc1O [C179, Cc1cccc(C)c1NC(=O)c1cc(S(N)(=O)=O)c(Cl)cc1O]
IC50 [3]: > 50 µM
Decoy – 0 Active – 1 [4]: 0

O=C(O[C@@H]1CS(=O)(=O)C[C@@H]1Nc1ccccc1)c1ccccc1 [C123, O=C(O[C@@H]1CS(=O)(=O)C[C@@H]1Nc1ccccc1)c1ccccc1]
IC50 [1]: > 50 µM
Decoy – 0 Active – 1 [2]: 0

Cc1c(C(=O)NC2CC2c2ccc(F)cc2F)[nH]c2c1C(=O)CCC2 (centres unmarked) [C205, Cc1c(C(=O)NC2CC2c2ccc(F)cc2F)[nH]c2c1C(=O)CCC2]
IC50 [3]: > 50 µM
Decoy – 0 Active – 1 [4]: 0

Cc1ccccc1NC(=O)c1c(O)nc2ccccc2c1O [C170, Cc1ccccc1NC(=O)c1c(O)nc2ccccc2c1O]
IC50 [3]: > 50 µM
Decoy – 0 Active – 1 [4]: 0

CCOC(=O)c1sc2ncnc(NC[C@H]3CCCO3)c2c1C [C103, CCOC(=O)c1sc2ncnc(NC[C@H]3CCCO3)c2c1C]
IC50 [1]: > 50 µM
Decoy – 0 Active – 1 [2]: 0

CCCC1(C(=O)O)CCN(C(=O)c2cccc(C)c2OC)CC1O (centres unmarked) [C207, CCCC1(C(=O)[O-])CCN(C(=O)c2cccc(C)c2OC)CC1O]
IC50 [3]: > 50 µM
Decoy – 0 Active – 1 [4]: 0

CC(C)Cc1cc(C(=O)N(Cc2ccccc2Cl)C(C)C)nc(=O)[nH]1 [C142, CC(C)Cc1cc(C(=O)N(Cc2ccccc2Cl)C(C)C)nc(=O)[nH]1]
IC50 [1]: > 50 µM
Decoy – 0 Active – 1 [2]: 0

Cn1c(C2CC(=O)N(c3cccc(C(F)(F)F)c3)C2)nc2ccccc21 (centres unmarked) [C194, Cn1c(C2CC(=O)N(c3cccc(C(F)(F)F)c3)C2)nc2ccccc21]
IC50 [3]: > 50 µM
Decoy – 0 Active – 1 [4]: 0

Cc1cccc(C2(C(=O)NC3CCC(=O)N(C)C3)CCCC2)c1 (centres unmarked) [C220, Cc1cccc(C2(C(=O)NC3CCC(=O)N(C)C3)CCCC2)c1]
IC50 [3]: > 50 µM
Decoy – 0 Active – 1 [4]: 0

Cc1cc(NCCc2nccs2)nc(-c2cccc([N+](=O)[O-])c2)n1 [C097, Cc1cc(NCCc2nccs2)nc(-c2cccc([N+](=O)[O-])c2)n1]
IC50 [1]: > 50 µM
Decoy – 0 Active – 1 [2]: 0

CC1CCCCN1C(=O)CNc1cc(C(=O)N(C)C)ccc1Cl (centres unmarked) [C074, CC1CCCCN1C(=O)CNc1cc(C(=O)N(C)C)ccc1Cl]
IC50 [1]: > 10 µM
Decoy – 0 Active – 1 [2]: 0

CNC(=O)c1cccc(NC(=O)N[C@H](C)Cc2ccc(C)s2)c1C [C115, CNC(=O)c1cccc(NC(=O)N[C@H](C)Cc2ccc(C)s2)c1C]
IC50: > 50 µM
Decoy – 0 Active – 1 [2]: 0

CCN1CCCC1C1CCCN1C(=O)CCc1c[nH]c2ccccc12 (centres unmarked) [C282, CCN1CCCC1C1CCCN1C(=O)CCc1c[nH]c2ccccc12]
IC50 [3]: > 50 µM
Decoy – 0 Active – 1 [4]: 0

O=C(O)c1ccc(CNC(=O)C2(c3ccc(Cl)cc3)CCC2)o1 [C185, O=C([O-])c1ccc(CNC(=O)C2(c3ccc(Cl)cc3)CCC2)o1]
IC50 [3]: > 50 µM
Decoy – 0 Active – 1 [4]: 0

Cn1nc(C(=O)N[C@@H]2CCCC[C@@H]2Cc2ccccc2)ccc1=O [C160, Cn1nc(C(=O)N[C@@H]2CCCC[C@@H]2Cc2ccccc2)ccc1=O]
IC50 [3]: > 50 µM
Decoy – 0 Active – 1 [4]: 0

O=C(COc1ccccc1O)NCc1ccccc1Cl [C174, O=C(COc1ccccc1O)NCc1ccccc1Cl]
IC50 [3]: > 50 µM
Decoy – 0 Active – 1 [4]: 0

CC[C@@H](NS(=O)(=O)NCc1ccccc1)c1cc(C)ccn1 [C137, CC[C@@H](NS(=O)(=O)NCc1ccccc1)c1cc(C)ccn1]
IC50 [1]: > 50 µM
Decoy – 0 Active – 1 [2]: 0

COc1ccc(C)cc1NC(=S)N1CCN(c2ccccc2O)CC1 [C026, COc1ccc(C)cc1NC(=S)N1CCN(CC1)c1ccccc1O]
IC50 [1]: > 30 µM
Decoy – 0 Active – 1 [2]: 0

CN(C)CCNC(=S)Nc1cc(C(F)(F)F)cc(C(F)(F)F)c1 [C041, S=C(NCCN(C)C)NC1=CC(C(F)(F)F)=CC(C(F)(F)F)=C1]
IC50 [1]: > 50 µM
Decoy – 0 Active – 1 [2]: 0

O=C1NCCN1CCNC(=S)Nc1cc(C(F)(F)F)cc(C(F)(F)F)c1 [C034, FC(F)(F)c1cc(NC(=S)NCCN2CCNC2=O)cc(c1)C(F)(F)F]
IC50 [1]: > 30 µM
Decoy – 0 Active – 1 [2]: 0

CCNC(=O)c1cccc(NC(=O)CN(Cc2ccco2)C2CCCC2)c1 [C063, CCNC(=O)c1cccc(NC(=O)C[NH+](Cc2ccco2)C2CCCC2)c1]
IC50 [1]: > 10 µM
Decoy – 0 Active – 1 [2]: 0

CCOC[C@H]1CCN(C(=O)Nc2cccn(CC(F)(F)F)c2=O)C1 [C104, CCOC[C@H]1CCN(C(=O)Nc2cccn(CC(F)(F)F)c2=O)C1]
IC50 [1]: > 50 µM
Decoy – 0 Active – 1 [2]: 0

COc1ccc2ccccc2c1CNc1c(N2CCSCC2)c(=O)c1=O [C004, COc1ccc2ccccc2c1CNc1c(N2CCSCC2)c(=O)c1=O]
IC50 [1]: > 50 µM
Decoy – 0 Active – 1 [2]: 0

Cc1cc(C)cc(Nc2c(-c3cccc(O)c3)nc3ncccn23)c1 [C182, Cc1cc(C)cc(Nc2c(-c3cccc(O)c3)nc3ncccn23)c1]
IC50 [3]: > 50 µM
Decoy – 0 Active – 1 [4]: 0

CC(C)c1ccc(S(=O)(=O)N2CCN(C)CC2c2ccccc2)cc1 (centres unmarked) [C237, CC(C)c1ccc(cc1)S(=O)(=O)N2CC[NH+](CC2c3ccccc3)C]
IC50 [3]: > 50 µM
Decoy – 0 Active – 1 [4]: 0

C[C@@H]1CCN(Cc2ccccc2)C[C@H]1Nc1ccc([N+](=O)[O-])c(C(N)=O)c1 [C117, C[C@@H]1CC[N@H+](Cc2ccccc2)C[C@H]1Nc1ccc([N+](=O)[O-])c(C(N)=O)c1]
IC50 [1]: > 50 µM
Decoy – 0 Active – 1 [2]: 0

O=C(NC1CC(C(=O)O)c2ccccc21)C1CCCN(C(=O)N2CCCC2)C1 (centres unmarked) [C197, O=C(NC1CC(C(=O)[O-])c2ccccc21)C1CCCN(C(=O)N2CCCC2)C1]
IC50 [3]: > 50 µM
Decoy – 0 Active – 1 [4]: 0

O=c1c(NCc2cc(C(F)(F)F)cc(C(F)(F)F)c2)c(NCc2cc(C(F)(F)F)cc(C(F)(F)F)c2)c1=O [C017, O=C1C(NCC2=CC(C(F)(F)F)=CC(C(F)(F)F)=C2)=C(NCC3=CC(C(F)(F)F)=CC(C(F)(F)F)=C3)C1=O]
IC50 [1]: > 50 µM
Decoy – 0 Active – 1 [2]: 0

Cc1cc(NCCn2cccn2)c2ccc(C(F)(F)F)cc2n1 [C162, Cc1cc(NCCn2cccn2)c2ccc(C(F)(F)F)cc2[nH+]1]
IC50 [3]: > 50 µM
Decoy – 0 Active – 1 [4]: 0

CNC(=O)c1cccc(NC(=O)N2CC[C@@H](c3ccccc3)C2)c1C [C098, CNC(=O)c1cccc(NC(=O)N2CC[C@@H](c3ccccc3)C2)c1C]
IC50 [1]: > 50 µM
Decoy – 0 Active – 1 [2]: 0

O=S1(=O)N=C(NCc2ccco2)c2ccccc21 [C148, O=S1(=O)N=C(NCc2ccco2)c2ccccc21]
IC50 [1]: > 50 µM
Decoy – 0 Active – 1 [2]: 0

O=S(=O)(NC(c1ccccc1)c1ccccn1)c1ccc2c(c1)OCCCO2 (centres unmarked) [C252, c1ccc(cc1)C(c2ccccn2)NS(=O)(=O)c3ccc4c(c3)OCCCO4]
IC50 [3]: > 50 µM
Decoy – 0 Active – 1 [4]: 0

CN(C)C(=O)c1cccc(NC(=O)NCCC2=CCCCC2)c1 [C127, CN(C)C(=O)c1cccc(NC(=O)NCCC2=CCCCC2)c1]
IC50 [1]: > 50 µM
Decoy – 0 Active – 1 [2]: 0
